Assays:
barnyardgrass [1] = experiment: Test B pre-/postemergence herbicide test; format: in vivo, Echinochloa crus-galli; conditions: for Barnyardgrass plant response rating: postemergence, scale 0 (no effect) to 100 (complete control)
Procedure, shortened: (§1)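 Response was scored visually 13 to 15 days after treatment against untreated greenhouse controls, 0 meaning no effect and 100 complete control. Formulations (solvent mixture plus surfactant) went onto soil after planting, onto foliage of 1- to 4-leaf plants, and onto 2-leaf plants in a flooded paddy set including rice and barnyardgrass.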

Surinam grass = experiment: Test B pre-/postemergence herbicide test; format: in vivo, Urochloa decumbens; conditions: for Surinam Grass plant response rating: postemergence, scale 0 (no effect) to 100 (complete control)
Procedure, shortened: (§2)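 Greenhouse pot assay with simultaneous preemergence (treated seed) and postemergence (2–18 cm seedlings) applications of surfactant-containing, non-phytotoxic solvent formulations. Response scored visually 13–15 days later on a 0–100 scale, 100 meaning complete control.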

cocklebur = experiment: Test B pre-/postemergence herbicide test; format: in vivo, Xanthium strumarium; conditions: for Cocklebur plant response rating: postemergence, scale 0 (no effect) to 100 (complete control)
Procedure, shortened: as §1

corn = experiment: Test B pre-/postemergence herbicide test; format: in vivo, Zea mays; conditions: for Corn plant response rating: postemergence, scale 0 (no effect) to 100 (complete control)
Procedure, shortened: as §2

large crabgrass = experiment: Test B pre-/postemergence herbicide test; format: in vivo, Digitaria sanguinalis; conditions: for Crabgrass, Large plant response rating: postemergence, scale 0 (no effect) to 100 (complete control)
Procedure, shortened: as §2

giant foxtail = experiment: Test B pre-/postemergence herbicide test; format: in vivo, Setaria faberi; conditions: for Foxtail, Giant plant response rating: postemergence, scale 0 (no effect) to 100 (complete control)
Procedure, shortened: as §2

lambsquarters = experiment: Test B pre-/postemergence herbicide test; format: in vivo, Chenopodium album; conditions: visual rating; for Lambsquarters plant response rating: postemergence, scale 0 (no effect) to 100 (complete control)
Procedure, shortened: as §2

morningglory = experiment: Test B pre-/postemergence herbicide test; format: in vivo, Ipomoea coccinea; conditions: for Morningglory plant response rating: postemergence, scale 0 (no effect) to 100 (complete control)
Procedure, shortened: as §1

pigweed = experiment: Test B pre-/postemergence herbicide test; format: in vivo, Amaranthus retroflexus; conditions: for Pigweed plant response rating: postemergence, scale 0 (no effect) to 100 (complete control)
Procedure, shortened: as §2

rice [2] = experiment: Test B pre-/postemergence herbicide test; format: in vivo, Oryza sativa; conditions: 0 = no effect, 100 = complete control, preemergence
Procedure, shortened: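 Species tested were Echinochloa crus-galli, Ipomoea coccinea, Xanthium strumarium and Oryza sativa, treated both before emergence and at the 1- to 4-leaf stage; rice and barnyardgrass were also tested under flooding at 2 leaves. Greenhouse incubation lasted 13–15 days before visual 0–100 scoring.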

velvetleaf = experiment: Test B pre-/postemergence herbicide test; format: in vivo, Abutilon theophrasti; conditions: for Velvetleaf plant response rating: postemergence, scale 0 (no effect) to 100 (complete control)
Procedure, shortened: as §2

blackgrass = experiment: Test B postemergence herbicide test; format: in vivo, Alopecurus myosuroides; conditions: postemergence, visual rating, scale 0 (no effect) to 100 (complete control)
Procedure, shortened: (§3)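 Visual control ratings, 0–100 versus untreated controls, taken after 13 to 15 days in the greenhouse. Blackgrass received a postemergence spray at the 1- to 4-leaf stage (2–18 cm); ducksalad, umbrella sedge and barnyardgrass were flooded-paddy treated at 2 leaves.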

wheat = experiment: Test B postemergence herbicide test; format: in vivo, Triticum aestivum; parameters: key to Wheat plant response rating: 0 = no effect, 100 = complete control; conditions: postemergence, visual rating, scale 0 (no effect) to 100 (complete control)
Procedure, shortened: (§4)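 Plants grow to 1- to 4-leaf stage (2–18 cm) for postemergence spraying, or to 2-leaf stage for the paddy test. Formulated compound is applied. Greenhouse holding lasts 13–15 days. Response is scored visually relative to controls, 0 no effect to 100 complete control; a dash means no result.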

wild oat = experiment: Test B postemergence herbicide test; format: in vivo, Avena fatua; conditions: postemergence, visual rating, scale 0 (no effect) to 100 (complete control)
Procedure, shortened: as §4

rice [3] = experiment: Test B flooded paddy test; format: in vivo, Oryza sativa; conditions: 1000 g ai/ha, visual rating, scale 0 to 100 (0 no effect, 100 complete control), 13 to 15 days
Procedure, shortened: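 Greenhouse test; postemergence application to plants at 1–4 leaves (2–18 cm); paddy species at 2 leaves; evaluated visually vs controls at 13–15 days; scale 0–100 (100 = complete control).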

[4] = test system: small flower umbrella sedge; experiment: Test B flooded paddy test; format: in vivo, Cyperus difformis; conditions: 1000 g ai/ha, visual rating, scale 0 to 100 (0 no effect, 100 complete control), 13 to 15 days
Procedure, shortened: as §3

ducksalad [5] = experiment: Test B flooded paddy test; format: in vivo, Heteranthera limosa; conditions: 1000 g ai/ha, visual rating, scale 0 to 100 (0 no effect, 100 complete control), 13 to 15 days
Procedure, shortened: as §3

barnyardgrass [6] = experiment: Test B flooded paddy test; format: in vivo, Echinochloa crus-galli; conditions: 1000 g ai/ha, visual rating, scale 0 to 100 (0 no effect, 100 complete control), 13 to 15 days
Procedure, shortened: as §3

rice [7] = experiment: Test C flooded paddy test; format: in vivo, Oryza sativa
Procedure, shortened: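 Injury scored visually against controls on a 0 (no effect) to 100 (complete control) scale, 12 to 14 days after treatment in greenhouse. Flooded paddy plants treated at 2-leaf stage; postemergence plants at 1- to 4-leaf stage, 2 to 18 cm tall.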

[8] = test system: smallflower umbrella sedge; experiment: Test C flooded paddy test; format: in vivo, Cyperus difformis
ducksalad [9] = experiment: Test C flooded paddy test; format: in vivo, Heteranthera limosa
barnyardgrass [10] = experiment: Test C flooded paddy test; format: in vivo, Echinochloa crus-galli
Procedure, shortened: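 Visual rating, 0 (no effect) to 100 (complete control), vs. controls at 12–14 d in greenhouse. Postemergence: 1–4-leaf plants, 2–18 cm. Paddy: flooded, barnyardgrass at 2-leaf stage.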

[11] = 125 g ai/ha, 0 = no effect, 100 = complete control, preemergence
[12] = 500 g ai/ha, visual rating, 0 = no effect, 100 = complete control, preemergence
[13] = 62 g ai/ha, scale 0 to 100 (0 no effect, 100 complete control)
[14] = 125 g ai/ha, scale 0 to 100 (0 no effect, 100 complete control)
[15] = 250 g ai/ha, scale of 0 to 100, 0 is no effect, 100 is complete control
[16] = 500 g ai/ha, visual rating after 12 to 14 days, scale 0 to 100 (0 no effect, 100 complete control)

## CCNC(=O)c1ccc(F)c(NC(=O)c2sc(C(C)(C)C)nc2CC)c1 [Compound 226]
Barnyardgrass [1]; [11]
  Barnyardgrass plant response rating (0 to 100 scale): 10
Barnyardgrass [1]; [12]
  Plant response rating, Barnyardgrass: 60
Barnyardgrass [1]; 125 g ai/ha, visual rating
  Barnyardgrass plant response rating: 10
Barnyardgrass [1]; 500 g ai/ha, visual rating
  Barnyardgrass plant response rating: 20
Surinam grass; [11]
  Surinam Grass plant response rating (0 to 100 scale): 10
Surinam grass; [12]
  Plant response rating, Surinam Grass: 40
Surinam grass; 125 g ai/ha, visual rating
  Surinam Grass plant response rating: 10
Surinam grass; 500 g ai/ha, visual rating
  Surinam Grass plant response rating: 20
cocklebur; [11]
  Cocklebur plant response rating (0 to 100 scale): 0
cocklebur; [12]
  Plant response rating, Cocklebur: 0
cocklebur; 125 g ai/ha, visual rating
  Cocklebur plant response rating: 10
cocklebur; 500 g ai/ha, visual rating
  Cocklebur plant response rating: 20
corn; [11]
  Corn plant response rating (0 to 100 scale): 0
corn; [12]
  Plant response rating, Corn: 20
corn; 125 g ai/ha, visual rating
  Corn plant response rating: 10
corn; 500 g ai/ha, visual rating
  Corn plant response rating: 40
Large crabgrass; [11]
  Crabgrass, Large plant response rating (0 to 100 scale): 20
Large crabgrass; [12]
  Plant response rating, Crabgrass, Large: 100
Large crabgrass; 125 g ai/ha, visual rating
  Crabgrass, Large plant response rating: 20
Large crabgrass; 500 g ai/ha, visual rating
  Crabgrass, Large plant response rating: 20
Giant foxtail; [11]
  Foxtail, Giant plant response rating (0 to 100 scale): 20
Giant foxtail; [12]
  Plant response rating, Foxtail, Giant: 70
Giant foxtail; 125 g ai/ha, visual rating
  Foxtail, Giant plant response rating: 20
Giant foxtail; 500 g ai/ha, visual rating
  Foxtail, Giant plant response rating: 20
lambsquarters; 500 g ai/ha, 0 = no effect, 100 = complete control, preemergence
  Plant response rating, Lambsquarters: 90
lambsquarters; 125 g ai/ha
  Lambsquarters plant response rating: 40
lambsquarters; 500 g ai/ha
  Lambsquarters plant response rating: 60
morningglory; [11]
  Morningglory plant response rating (0 to 100 scale): 0
morningglory; [12]
  Plant response rating, Morningglory: 10
morningglory; 125 g ai/ha, visual rating
  Morningglory plant response rating: 30
morningglory; 500 g ai/ha, visual rating
  Morningglory plant response rating: 80
pigweed; [11]
  Pigweed plant response rating (0 to 100 scale): 40
pigweed; [12]
  Plant response rating, Pigweed: 70
pigweed; 125 g ai/ha, visual rating
  Pigweed plant response rating: 30
pigweed; 500 g ai/ha, visual rating
  Pigweed plant response rating: 60
Rice [2]; 125 g ai/ha
  Rice plant response rating (0 to 100 scale): 20
Rice [2]; 500 g ai/ha, visual rating
  Plant response rating, Rice: 30
velvetleaf; [11]
  Velvetleaf plant response rating (0 to 100 scale): 10
velvetleaf; [12]
  Plant response rating, Velvetleaf: 50
velvetleaf; 125 g ai/ha, visual rating
  Velvetleaf plant response rating: 20
velvetleaf; 500 g ai/ha, visual rating
  Velvetleaf plant response rating: 20
blackgrass; 125 g ai/ha
  Blackgrass plant response rating: 20
blackgrass; 500 g ai/ha
  Blackgrass plant response rating: 20
wheat; 125 g ai/ha
  Wheat plant response rating: 20
wheat; 500 g ai/ha
  Wheat plant response rating: 30
Wild oat; 125 g ai/ha
  Oat, Wild plant response rating: 30
Wild oat; 500 g ai/ha
  Oat, Wild plant response rating: 30
Rice [3]
  Rice plant response rating: 80
[4]
  Sedge, Umbrella plant response rating: 80
Ducksalad [5]
  Ducksalad plant response rating: 70
Barnyardgrass [6]
  Barnyardgrass plant response rating: 80
Rice [7]; [13]
  Rice plant response rating: 0
Rice [7]; [14]
  Rice plant response rating: 25
Rice [7]; [15]
  Rice plant response rating: 45
Rice [7]; [16]
  Plant response rating, Rice: 70
[8]; [13]
  Sedge, Umbrella plant response rating: 10
[8]; [14]
  Sedge, Umbrella plant response rating: 10
[8]; [15]
  Sedge, Umbrella plant response rating: 40
[8]; [16]
  Plant response rating, Sedge, Umbrella: 70
Ducksalad [9]; [13]
  Ducksalad plant response rating: 0
Ducksalad [9]; [14]
  Ducksalad plant response rating: 0
Ducksalad [9]; [15]
  Ducksalad plant response rating: 40
Ducksalad [9]; [16]
  Plant response rating, Ducksalad: 65
Barnyardgrass [10]; [13]
  Barnyardgrass plant response rating: 0
Barnyardgrass [10]; [14]
  Barnyardgrass plant response rating: 0
Barnyardgrass [10]; [15]
  Barnyardgrass plant response rating: 50
Barnyardgrass [10]; [16]
  Plant response rating, Barnyardgrass: 60

Source: patent US20060069132A1, “Azolecarboxamide herbicides” (priority 2004, published 2006)
